Experimental data: patent publication US20180221306A1, “PHARMACEUTICAL COMPOSITIONS OF 5-HYDROXY-2-METHYLNAPHTHALENE-1,4-DIONE” (PellFiCure Pharmaceuticals, Inc., priority 2016, published 2018)

Legend:
[1] = test system: PTEN-P2/H2B-GFP mouse prostate cancer cells; assay: IVM pseudo-orthotopic prostate chamber model, tumor size
Method: Male Nude mice (25-35 g body weight) are anesthetized (7.3 mg ketamine hydrochloride and 2.3 mg xylazine/100 g body weight, i.p.) and placed on a heating pad. Two symmetrical titanium frames are implanted into a dorsal skinfold, so as to sandwich the extended double layer of skin. A 15 mm full thickness circular layer is excised. The underlying muscle (M. cutaneous max.) and subcutaneous tissues are covered with a glass coverslip incorporated in one of the frames. After a recovery period of 2-3 days, prostate tissue and cancer cell spheroids are carefully placed in the chamber. Small circular Band Aids are applied on the backside of the chamber after surgery to prevent scratching. Before surgery, Buprenorphine (0.1 mg/kg) is given IP. After surgery Meloxicam is given in the drinking water for 4 days Meloxicam (5.0 mg/ml), is added at 35 μl per 100 ml of water to be medicated.
Mice are anesthetized with 7.3 mg ketamine hydrochloride and 2.3 mg xylazine/100 g body weight, i.p. A lateral incision across the scrotum is made and the testes are individually ligated and excised. The wound is cauterized. The incision is then sutured and sealed with Nexaband® acrylic.
Preparation of tumor spheroids: Liquid overlay plates were generated using 1% molecular biology grade agarose melted in cell culture medium and plated in round bottom 96 well plates at 50 ul/well. Tumor cells grown as pre-confluent monolayers were trypsinized and diluted to a final volume of 1,000,000 cells/ml. Viability was determined by Trypan blue. Cells were placed onto the cooled agarose (70 μl/well) and allowed to compact into spheroids for 24 hours. The spheroids were picked with a pipette and transferred into serum-free media for implantation in the chambers.
IntraVital Microscopy (IVM) can be used to visualize tumors in animals and analyze various aspects of cancer physiology such as tumor vascularization, cell migration and metastasis. An advantage of IVM includes the real-time analysis of dynamic processes with single-cell resolution. IntraVital microscopy offers the possibility to follow tumor growth in a non-invasive, non-destructive manner. The application of IVM can be limited to animal models that bear visually accessible tumors. Therefore, the dorsal skinfold chamber model described above can be compatible with IVM. Using IVM can permit a number of parameters to be measured in living animals and as a function of time, including tumor growth, angiogenesis, infiltration by immune cells, tumor cell migration, mitosis (cell-division) and apoptosis (programmed cell death), all in the context of the host and in real time.
Unless otherwise indicated, Compound I was administered by oral gavage in a sesame oil (Carrier A) formulation. Compound I was dissolved in DMSO then in oil at a concentration of 0.25 mg/ml (weight/volume) with a final DMSO concentration of 0.5% (vol/vol), and administered to mice at 1 mg/kg. In some experiments, Compound I dissolved in a mixture of poly-ethylene glycol/DMSO 30% (w/v) was administered via intra-peritoneal injection.
The efficacy of the formulation of Compound I in Carrier A for oral administration was compared to the previous formulation of Compound I in poly-ethylene glycol (PEG) for intra-peritoneal injection (i.p.). These experiments were performed using Intra Vital Microscopy (IVM) in a pseudo-orthotopic prostate chamber model in which minced prostate tissue is grafted in chambers surgically placed in the dorsal skinfold of mice, and allowed to vascularize. Small tumor cells spheroids were then placed on the prostate tissue, creating a biologically relevant prostatic environment. The tumor cells that express fluorescent H2B-GFP and can be detected in situ and in real-time through the microscopy window of the dorsal chamber.
Epithelial cell lines derived from the prostate tumor of a PTEN-null mouse were used. Mouse prostate cancer cells PTEN-P2 are heterozygous for PTEN deletion and do express protein PTEN.

TRAMP-C2 tumor cells = assay: Orthotopic prostate cancer survival study, TRAMP-C2 cells in C57BL/6 mice; assay type: in vivo, mouse; conditions: 1 mg/kg per oral plus castration; p<0.001
Method: Orthotopic injection of PTEN-P2 and TRAMP-C2 for survival studies: Mice were anaesthetized and an incision was made through the skin and peritoneum. A total of 30,000 cells were suspended in Matrigel and slowly injected into the dorsal lobe of the prostate using a 30-gauge needle. Matrigel was used to prevent the leakage of cells out of the site of injection. A Q-tip was held over the injection site for 1 min to prevent bleeding and spill after removal of the needle. The abdominal wall was closed by surgical silk sutures.
Fox1/Nu or C57BL/6J mice were used as recipients for PTEN-P2 and TRAMP-C2 cells, respectively. Mice were surgically castrated 6 weeks later, when tumors were established, and Compound I treatment was initiated 4-5 days later. The number of days mice lived following treatment initiation was recorded for each animal. A few mice were found dead upon daily inspection, while others were euthanized in agreement with our IACUC regulations, including mice showing weight losses of more than 15% and mice showing signs of pain though posture and lack of grooming were euthanized.
A second study, shown in FIG. 6, used cells derived from the transgenic adenocarcinoma of the mouse prostate (TRAMP) model. The TRAMP model was generated through prostate-specific expression of the large T antigen of SV40 in the prostate epithelium. […]

`CC1=CC(=O)c2c(O)cccc2C1=O` [Compound I, 5-hydroxy-2-methylnaphthalene-1,4-dione] was tested, and the “Tumor regression at higher doses” value ([1]; 3 and 10 mg/kg/day in oil, oral, castrated mice) was “no improvement over the dose of 1 mg/kg/day”, the Combination efficacy ([1]; Compound I administered orally in combination with surgical castration) was “Yes” and the “Shrinkage of the tumors” value ([1]; Compound I in Carrier A orally 1 mg/kg/day with degarelix) was “approximately 50%”. The “Tumor size relative to the starting size” value ([1]; Compound I in Carrier A orally with abiraterone/prednisone) was “less than 60%”, the “Effect on tumor size” value ([1]; Compound I in Carrier A orally with bicalutamide) was “did not result in a reduction of initial tumor size” and the “Shrinkage of the tumor size” value ([1]; Compound I in Carrier A orally with dutasteride) was “approximately 30%”. For the same molecule, the “Effect on tumor size” value ([1]; Compound I in Carrier A orally with enzalutamide) was “did not result in a reduction in tumor size”, the “Tumor size relative to the starting size” value ([1]; Compound I in Carrier A orally with orteronel) was “less than 60%” and the “Decrease of tumor sizes” value ([1]; Compound I in PEG, i.p. 1 mg/kg/day, castrated mice, p<0.001) was 50%. For the same molecule, the “Effectiveness vs drug alone” value ([1]; combination of bicalutamide with Compound I) was “no more effective than treatment with the drug alone”, the “Effectiveness vs drug alone” value ([1]; combination of enzalutamide with Compound I) was “no more effective than treatment with the drug alone” and the “Effect on tumor size” value ([1]; combination of leuprolide and the oral formulation of Compound I) was “caused the tumors to shrink”. The “Tumor flare vs leuprolide alone” value ([1]; combination of the oral formulation of Compound I and leuprolide) was “shorter and of lesser amplitude”, the “Efficiency vs combination with surgical castration” value ([1]; combination with 2 mg/kg dutasteride) was “nearly as efficient as the combination of Compound I with surgical castration” and the “Efficiency vs chemical ADT by itself” value ([1]; combination with abiraterone/prednisone vs abiraterone/prednisone) was “more efficient”. For the same molecule, the “Shrinkage vs comparator combination” value ([1]; combination with abiraterone/prednisone, comparator printed as combination of Compound I and abiraterone/prednisone) was “more shrinkage of tumors”, the “Shrinkage vs combination of Compound I and castration” value ([1]; combination with degarelix) was “more shrinkage of tumors” and the “Efficiency vs chemical ADT by itself” value ([1]; combination with degarelix vs degarelix) was “more efficient”. For the same molecule, the “Dose dependence of tumor regression” value ([1]; combination with dutasteride at 2, 0.3, 0.1, 0.03 mg/kg) was “tumor regression proportionally to the dose of dutasteride”, the “Efficiency vs chemical ADT by itself” value ([1]; combination with dutasteride vs dutasteride, p<0.001) was “more efficient” and the “Shrinkage vs combination of Compound I and castration” value ([1]; combination with orteronel) was “more shrinkage of tumor size”. The “Efficiency vs chemical ADT by itself” value ([1]; combination with orteronel vs orteronel) was “more efficient”, the “Maximum tumor size reached, relative to initial tumor size” value ([1]; leuprolide plus Compound I orally 1 mg/kg/day, p=0.014 between treatments) was 120% and the “Tumor regression at lower doses” value ([1]; lower doses than 1 mg/kg/day (FIG. 3B), oral in Carrier A, castrated mice) was “less efficient at causing tumor regression”. The “Tolerability of oral administration” value ([1]; mice, up to 10 mg/kg/day for 21 days, no changes in whole body weights or animal behavior) was “well tolerated”, the “Dose of optimal effect” value ([1]; oil formulation, oral, castrated mice) was 1 mg/kg/day and the “Tumor regression, oral formulation versus i.p. formulation” value ([1]; oral 1 mg/kg/day in Carrier A, castrated mice) was “as effectively as i.p. injection of 1 mg/kg Compound I in PEG”. The “Dose at which Compound I was maximally effective” value ([1]; see Example 5) was 1 mg/kg and the “Longer survival of 50% of the combination-treated mice vs castration alone” value (TRAMP-C2 tumor cells) was 200 days.
